Experimental data reported in PMC10870435, “A novel complement C3 inhibitor CP40-KK protects against experimental pulmonary arterial hypertension via an inflammasome NLRP3 associated pathway” (Journal of Translational Medicine, 2024).
Bridge positions count the residues as written; N and C are the ends. Square brackets hold non-standard residues; d marks the D form. Peptide text beside a SMILES is read from it. Trp(1-Me) = Cn1cc(C[C@H](N)C(=O)O)c2ccccc21; NMeI = CC[C@H](C)[C@H](NC)C(=O)O; Sar = CNCC(=O)O

Tests used:
[1] = tested on: rat complement C3 function; assay: CH50 test (Mayer method) in vitro, peptide added to rat plasma; type: biochemical; conditions: 0, 2.5, 5.0, 10, 20, 40 µM added to mixed wild-type SD rat plasma; sensitized sheep erythrocytes
Method: The total functional complement was determined with a CH50 assay based on the modified method of Mayer. The 50% haemolytic standard tube was made by adding 0.3 ml 2% sheep erythrocytes (Chundubio, Wuhan, China) to 1.2 ml distilled water and then diluting with equivoluminal veronal buffer saline (Leagene, Beijing, China). The sheep erythrocytes were sensitized by adding a designated volume of a predetermined concentration of rabbit haemolytic serum (Solarbio, Beijing, China) in veronal buffer saline. The plasma of rats was first prediluted in veronal buffer saline at 1/5, 1/10, and 1/20. […] The OD values of supernatant liquid in the ten tubes were measured at 541 nm and compared with that of the 50% haemolytic standard tube to get the most similar value. The total haemolytic complement (CH50) = dilution ratio / the quantity of plasma needed to induce 50% lysis of sheep erythrocytes.
Plasma samples for biological assays from rats were centrifuged and stored at -80°C until used, and the total functional complement was determined with a CH50 assay based on the modified method of Mayer. This assay involves determining the quantity of plasma needed to induce 50% lysis of sheep erythrocytes sensitized with antibody anti-sheep erythrocytes. […] The total hemolytic complement (CH50) = dilution ratio / the quantity of plasma needed to induce 50% lysis of sheep erythrocytes^5-7.

C3b = conditions: cited from earlier work
complement C3 = conditions: cited from earlier work
[2] = tested on: pulmonary vascular remodeling markers (α-SMA, PCNA); assay: Lung α-SMA immunohistochemistry and PCNA western blot in PAH rats; type: in vivo, rat; conditions: MCT + CP40-KK vs MCT group
Method: In the current study, two animal experiments were conducted successively. 30 rats were randomly divided into two groups (control group and MCT group, n = 15 per group) in the first experiment. MCT group rats received a single intraperitoneally injection of MCT (40 mg/kg) on day 1 to induce PAH while control group rats received an equivoluminal saline injection intraperitoneally. For the second animal experiment, the rats were assigned into four groups (control group, MCT group, CP40-KK group, and MCT + CP40-KK group, n = 15 per group). […]
After hemodynamic measurements, the lungs were perfused with cold phosphate-buffered saline (PBS) and fixed in 4% formaldehyde for 24 h. […] Immunolabels were detected with 3, 3-Diaminobenzidine (DAB), after which the nuclei were counterstained with hematoxylin. […] For quantification analysis, the mean integrated optical density (IOD) for immunohistochemistry was determined using Image J software (National Institutes of Health, Bethesda, MD).
(§1) Proteins were collected from the fresh frozen-rat lung tissues using RIPA lysis buffer. Protein concentration was quantified using a BCA reagent. […] To compare and quantify levels of proteins, the density of each band was measured using Image J software. Equal loading for total cell or tissue lysates was determined by β-Actin western blot.

NLRP3 inflammasome = assay: Lung homogenate western blot of NF-κB p65 / NLRP3 inflammasome pathway in PAH rats; type: in vivo, rat; conditions: lung homogenates, MCT + CP40-KK vs MCT, n = 6 per group
Method: In the current study, two animal experiments were conducted successively. 30 rats were randomly divided into two groups (control group and MCT group, n = 15 per group) in the first experiment. MCT group rats received a single intraperitoneally injection of MCT (40 mg/kg) on day 1 to induce PAH while control group rats received an equivoluminal saline injection intraperitoneally. For the second animal experiment, the rats were assigned into four groups (control group, MCT group, CP40-KK group, and MCT + CP40-KK group, n = 15 per group). The control group was given the same volume of saline subcutaneously while the CP40-KK group rats only received CP40-KK (2 mg/kg) by subcutaneous injection from day 15 to day 28 continuously. The rats in the MCT group and MCT + CP40-KK group were received a single intraperitoneally injection of MCT (40 mg/kg) on day 1 and subcutaneously injected with either an equal volume of saline or CP40-KK (2 mg/kg) at day 15 to day 28 continuously. The dose selection of MCT and CP40-KK in our study was established based on previous studies.
Proteins were collected from the fresh frozen-rat lung tissues using RIPA lysis buffer. Protein concentration was quantified using a BCA reagent. Equal amounts of protein were electrophoretically separated on 10% SDS polyacrylamide gel, transferred to PVDF membranes, and probed with desired primary antibodies overnight at 4 °C. Membranes were then washed with TBST and incubated with anti-mouse IgG (1:5000) or anti-rabbit IgG (1:5000) horseradish peroxidase conjugated antibodies as indicated. […] To compare and quantify levels of proteins, the density of each band was measured using Image J software. Equal loading for total cell or tissue lysates was determined by β-Actin western blot.
as §1, with “blot^3,4.” for “blot.”

[3] = cited from earlier work
Text: The selective C3 inhibitor CP40 has been found therapeutically effective in various diseases, but has yet not been tested in the PAH model. In the current study, we applied the newly identified CP40 analog, CP40-KK, with two more lysine attached to the C terminus, in the MCT-induced PAH rat model.

For `CC[C@H](C)[C@H](NC(=O)[C@H](N)Cc1ccc(O)cc1)C(=O)N[C@H]1CSSC[C@@H](C(=O)N(C)[C@H](C(=O)N[C@@H](CCCCN)C(=O)N[C@@H](CCCCN)C(N)=O)[C@@H](C)CC)NC(=O)[C@H](CCCNC(=N)N)NC(=O)[C@H](Cc2c[nH]cn2)NC(=O)CN(C)C(=O)[C@H](Cc2c[nH]c3ccccc23)NC(=O)[C@H](CC(=O)O)NC(=O)[C@H](CCC(N)=O)NC(=O)[C@H](Cc2cn(C)c3ccccc23)NC(=O)[C@H](C(C)C)NC1=O` [CP40-KK] (H-[dY]ICV[Trp(1-Me)]QDW[Sar]HRC[NMeI]KK-NH2; disulfide 3-12 (inferred)), the “CH50 value (rat C3 function) in vitro” value [1] is given as “blocked rat C3 function in a dosage-dependent manner”, the “binding affinity for C3b relative to CP40” value (C3b) is given as “increase the binding affinity for C3b” and the “inhibitory potency relative to CP40” value (complement C3) is given as “retaining its inhibitory potency”. For the same molecule, the “expression of α-SMA in walls of small pulmonary arteries” value ([2]; immunohistochemistry) was “reduced significantly”, the “PCNA expression in lung homogenates” value ([2]; western blot, n = 6 per group) was “decreased” and the “NF-κB subunit p65 phosphorylation” value (NLRP3 inflammasome) was “significantly block”. The NLRP3 inflammasome activation (NLRP3 inflammasome) was “significantly block”, the “production of proinflammatory cytokines IL-1β and IL-18” value (NLRP3 inflammasome) was “reduced” and the “improvement in solubility in comparison with parental peptide CP40” value ([3]; at physiological pH) was over 200 fold. The “apparent clearance compared to CP40 (decreased)” value ([3]; non-human primates) was about 2.6 fold, the “maximum concentration compared to CP40 (higher)” value ([3]; non-human primates) was “twofold” and the “terminal half-life compared to CP40 (higher)” value ([3]; non-human primates) was “fivefold”.
